Patent publication US20230233569A1 (Revolution Medicines, Inc., priority 2020, published 2023)
Read-outs that look alike come from different tables or passages of the source.

Columns and labels:
KRAS WT = KRAS WT (Homo sapiens, UniProt P01116+P62937); test: Ras-Raf disruption / FRET / MOA assay (BRAF RBD); type: biochemical; conditions: with Cyclophilin A
Method in brief: (§1)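 TR-FRET in 25 mM HEPES pH 7.3, 100 mM NaCl, 5 mM MgCl2, 0.1% BSA, 0.002% Tween20 with 25 μM Cyclophilin A, 12.5 nM His6-Ras-GMPPNP, 50 nM GST-BRAF RBD; compound 10-point 3-fold series from 30 μM. After 3 h at 25 °C, Eu anti-His/APC anti-GST added for 1.5 h; IC50 from ratio decrease versus DMSO.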

KRAS Q61H = KRAS Q61H (Homo sapiens, UniProt P01116+P62937, Q61H); test: Ras-Raf disruption / FRET / MOA assay (BRAF RBD); type: biochemical
Sequence of KRAS Q61H (P01116 1-169 isoform P01116-2 Q61H limits assumed): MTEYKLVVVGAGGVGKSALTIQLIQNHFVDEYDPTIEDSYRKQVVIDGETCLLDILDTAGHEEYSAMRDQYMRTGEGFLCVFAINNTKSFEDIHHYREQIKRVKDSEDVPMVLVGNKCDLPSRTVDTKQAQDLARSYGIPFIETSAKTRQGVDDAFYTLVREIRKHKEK
Sequence of KRAS Q61H (P62937 whole entry): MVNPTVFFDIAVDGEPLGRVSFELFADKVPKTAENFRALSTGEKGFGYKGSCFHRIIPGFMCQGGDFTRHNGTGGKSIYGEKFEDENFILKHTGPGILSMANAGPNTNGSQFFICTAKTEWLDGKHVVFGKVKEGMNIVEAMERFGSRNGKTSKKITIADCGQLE
Method in brief: as §1

NRAS Q61R = NRAS Q61R (Homo sapiens, UniProt P01111+P62937, Q61R); test: Ras-Raf disruption / FRET / MOA assay (BRAF RBD); type: biochemical
Sequence of NRAS Q61R (P01111 whole entry Q61R): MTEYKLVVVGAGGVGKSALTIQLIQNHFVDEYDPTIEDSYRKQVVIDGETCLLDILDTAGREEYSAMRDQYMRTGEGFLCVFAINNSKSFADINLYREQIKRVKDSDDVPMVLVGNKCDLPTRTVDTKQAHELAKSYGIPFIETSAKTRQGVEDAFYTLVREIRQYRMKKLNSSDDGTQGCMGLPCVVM
Sequence of NRAS Q61R (P62937 whole entry): as the sequence (P62937 whole entry) above
Method in brief: as §1

KRAS G12V = KRAS G12V (Homo sapiens, UniProt P01116+P62937, G12V); test: Ras-Raf disruption / FRET / MOA assay (BRAF RBD); type: biochemical; conditions: with Cyclophilin A
Sequence of KRAS G12V (P01116 1-169 isoform P01116-2 G12V limits assumed): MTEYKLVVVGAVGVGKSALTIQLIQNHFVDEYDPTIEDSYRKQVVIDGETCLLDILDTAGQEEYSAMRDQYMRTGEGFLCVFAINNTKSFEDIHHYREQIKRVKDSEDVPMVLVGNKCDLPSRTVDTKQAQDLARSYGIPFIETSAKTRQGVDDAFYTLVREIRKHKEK
Sequence of KRAS G12V (P62937 whole entry): as the sequence (P62937 whole entry) above
Method in brief: as §1

KRAS G13C = KRAS G13C (Homo sapiens, UniProt P01116+P62937, G13C); test: Ras-Raf disruption / FRET / MOA assay (BRAF RBD); type: biochemical; conditions: with Cyclophilin A
Sequence of KRAS G13C (P01116 1-169 isoform P01116-2 G13C limits assumed): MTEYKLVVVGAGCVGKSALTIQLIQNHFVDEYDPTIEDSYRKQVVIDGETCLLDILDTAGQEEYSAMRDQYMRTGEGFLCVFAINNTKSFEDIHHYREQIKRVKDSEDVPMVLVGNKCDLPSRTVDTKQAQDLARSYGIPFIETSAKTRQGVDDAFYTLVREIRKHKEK
Sequence of KRAS G13C (P62937 whole entry): as the sequence (P62937 whole entry) above
Method in brief: as §1

NRAS G12C = NRAS G12C (Homo sapiens, UniProt P01111+P62937, G12C); test: Ras-Raf disruption / FRET / MOA assay (BRAF RBD); type: biochemical
Sequence of NRAS G12C (P01111 whole entry G12C): as the sequence (P01111 whole entry Q61R) above, with G12C, R61Q counted along it
Sequence of NRAS G12C (P62937 whole entry): as the sequence (P62937 whole entry) above
Method in brief: as §1

KRAS G12S = KRAS G12S (Homo sapiens, UniProt P01116+P62937, G12S); test: Ras-Raf disruption / FRET / MOA assay (BRAF RBD); type: biochemical; conditions: with Cyclophilin A
Sequence of KRAS G12S (P01116 1-169 isoform P01116-2 G12S limits assumed): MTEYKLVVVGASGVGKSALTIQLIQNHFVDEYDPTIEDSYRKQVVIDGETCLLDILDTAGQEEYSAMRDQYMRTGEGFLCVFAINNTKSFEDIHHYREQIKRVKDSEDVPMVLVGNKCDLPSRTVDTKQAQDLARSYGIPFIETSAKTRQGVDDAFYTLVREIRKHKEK
Sequence of KRAS G12S (P62937 whole entry): as the sequence (P62937 whole entry) above
Method in brief: as §1

NRAS Q61K = NRAS Q61K (Homo sapiens, UniProt P01111+P62937, Q61K); test: Ras-Raf disruption / FRET / MOA assay (BRAF RBD); type: biochemical
Sequence of NRAS Q61K (P01111 whole entry Q61K): as the sequence (P01111 whole entry Q61R) above, with R61K counted along it
Sequence of NRAS Q61K (P62937 whole entry): as the sequence (P62937 whole entry) above
Method in brief: as §1

KRAS G12D = KRAS G12D (Homo sapiens, UniProt P01116+P62937, G12D); test: Ras-Raf disruption / FRET / MOA assay (BRAF RBD); type: biochemical; conditions: with Cyclophilin A
Sequence of KRAS G12D (P01116 1-169 isoform P01116-2 G12D limits assumed): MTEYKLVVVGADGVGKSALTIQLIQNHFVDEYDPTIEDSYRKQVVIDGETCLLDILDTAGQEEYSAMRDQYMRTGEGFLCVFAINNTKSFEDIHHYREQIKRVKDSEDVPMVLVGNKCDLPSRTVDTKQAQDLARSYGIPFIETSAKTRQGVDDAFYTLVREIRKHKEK
Sequence of KRAS G12D (P62937 whole entry): as the sequence (P62937 whole entry) above
Method in brief: as §1

KRAS G13D = KRAS G13D (Homo sapiens, UniProt P01116+P62937, G13D); test: Ras-Raf disruption / FRET / MOA assay (BRAF RBD); type: biochemical; conditions: with Cyclophilin A
Sequence of KRAS G13D (P01116 1-169 isoform P01116-2 G13D limits assumed): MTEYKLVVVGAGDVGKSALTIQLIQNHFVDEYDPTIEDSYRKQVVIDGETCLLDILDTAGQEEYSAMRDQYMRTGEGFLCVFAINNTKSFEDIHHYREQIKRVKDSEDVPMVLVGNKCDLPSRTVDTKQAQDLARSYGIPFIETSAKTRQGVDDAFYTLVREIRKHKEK
Sequence of KRAS G13D (P62937 whole entry): as the sequence (P62937 whole entry) above
Method in brief: as §1

NRAS WT = NRAS WT (Homo sapiens, UniProt P01111+P62937); test: Ras-Raf disruption / FRET / MOA assay (BRAF RBD); type: biochemical
Sequence of NRAS WT (P01111 whole entry): as the sequence (P01111 whole entry Q61R) above, with R61Q counted along it
Sequence of NRAS WT (P62937 whole entry): as the sequence (P62937 whole entry) above
Method in brief: as §1

KRAS G12C = KRAS G12C (Homo sapiens, UniProt P01116+P62937, G12C); test: Ras-Raf disruption / FRET / MOA assay (BRAF RBD); type: biochemical; conditions: with Cyclophilin A
Sequence of KRAS G12C (P01116 1-169 isoform P01116-2 G12C limits assumed): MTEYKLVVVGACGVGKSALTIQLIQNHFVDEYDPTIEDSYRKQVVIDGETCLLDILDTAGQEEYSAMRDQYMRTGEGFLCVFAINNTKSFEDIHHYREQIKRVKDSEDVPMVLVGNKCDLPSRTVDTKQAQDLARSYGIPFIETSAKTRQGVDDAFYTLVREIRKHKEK
Sequence of KRAS G12C (P62937 whole entry): as the sequence (P62937 whole entry) above
Method in brief: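 His6-K-Ras G12C-GMPPNP (12.5 nM), GST-BRAF RBD (50 nM) and tagless Cyclophilin A (25 μM) incubated 3 h at 25 °C with compound (10-point 3-fold series from 30 μM), pH 7.3 HEPES buffer. Anti-His Eu/anti-GST APC added for 1.5 h; decreased TR-FRET ratio vs DMSO gives IC50.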

NCI-H358 (K-Ras G12C) = test: CellTiter-Glo cell viability assay; type: cell-based; conditions: Homo sapiens, NCI-H358, 120 h, read-out: H358 Cell Viability assay data IC50, K-Ras G12C, 5-day treatment
Method in brief: (§2)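 Compounds dispensed directly onto seeded AsPC-1 (K-Ras G12D) or NCI-H358 (K-Ras G12C) cells; CellTiter-Glo luminescence read on day 5 after ~30 min equilibration to room temperature. Signal normalized to DMSO average (%) and fit by four-parameter logistic.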

AsPC-1 (K-Ras G12D) [1] = test: CellTiter-Glo cell viability assay; type: cell-based; conditions: Homo sapiens, ASPC1, 120 h, read-out: AsPC-1 Cell Viability assay data IC50, K-Ras G12D, 5-day treatment
Method in brief: as §2

AsPC-1 (K-Ras G12D) [2] = test: Potency assay: pERK; type: cell-based; conditions: Homo sapiens, ASPC1, read-out: pERK EC50
[3] = KRAS WT FRET data IC50, Ras-Raf disruption
[4] = KRAS G12V FRET data IC50, Ras-Raf disruption
[5] = KRAS G13C FRET data IC50, Ras-Raf disruption
[6] = NRAS G12C FRET data IC50, NRAS G12C
[7] = KRAS G12S FRET data IC50, Ras-Raf disruption
[8] = KRAS G12D FRET data IC50, Ras-Raf disruption
[9] = KRAS G13D FRET data IC50, Ras-Raf disruption
[10] = KRAS G12C FRET data IC50, Ras-Raf disruption

Sequence of KRAS WT (P01116 1-169 isoform P01116-2 limits assumed): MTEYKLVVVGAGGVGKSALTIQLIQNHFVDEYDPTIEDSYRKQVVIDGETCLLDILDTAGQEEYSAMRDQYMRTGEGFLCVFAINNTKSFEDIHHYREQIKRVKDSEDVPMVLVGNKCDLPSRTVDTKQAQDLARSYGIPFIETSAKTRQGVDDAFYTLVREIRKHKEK
Sequence of KRAS WT (P62937 whole entry): as the sequence (P62937 whole entry) above

| SMILES | IC50 (NCI-H358 (K-Ras G12C)) [µM] | IC50 (AsPC-1 (K-Ras G12D) [1]) [µM] | EC50 (AsPC-1 (K-Ras G12D) [2]) [µM] | IC50 (KRAS WT; [3]) [µM] | IC50 (KRAS Q61H) [µM] | IC50 (NRAS Q61R) [µM] | IC50 (KRAS G12V; [4]) [µM] | IC50 (KRAS G13C; [5]) [µM] | IC50 (NRAS G12C; [6]) [µM] | IC50 (KRAS G12S; [7]) [µM] | IC50 (NRAS Q61K) [µM] | IC50 (KRAS G12D; [8]) [µM] | IC50 (KRAS G13D; [9]) [µM] | IC50 (NRAS WT) [µM] | IC50 (KRAS G12C; [10]) [µM] | other results |
| --- | --- | --- | --- | --- | --- | --- | --- | --- | --- | --- | --- | --- | --- | --- | --- | --- |
| CCn1c(-c2cccnc2[C@H](C)OC)c2c3cc(ccc31)-c1cc(O)cc(c1)C[C@H](NC(=O)[C@H](C1CCCC1)N1CC[C@]3(CCN(C(=O)[C@@H]4N[C@@H]4C4CC4)C3)C1=O)C(=O)N1CCC[C@H](N1)C(=O)OCC(C)(C)C2 [Example 214, (2S)-2-cyclopentyl-2-((S)-7-((2R,3R)-3-cyclopropylaziridine-2-carbonyl)-1-oxo-2,7-diazaspiro[4.4]nonan-2-yl)-N-((6^3S,4S)-1^1-ethyl-2^5-hydroxy-1^2-(2-((S)-1-methoxyethyl)pyridin-3-yl)-10,10-dimethyl-5,7-dioxo-6^1,6^2,6^3,6^4,6^5,6^6-hexahydro-1^1H-8-oxa-1(5,3)-indola-6(1,3)-pyridazina-2(1,3)-benzenacycloundecaphane-4-yl)acetamide] | 0.01 to 0.1 | 0.01 to 0.1 | < 5 |  |  |  |  |  |  |  |  |  |  |  |  | IC50 (KRAS WT; Ras-Raf disruption, read-out: KRAS WT FRET data IC50): 0.01 to 0.1 µM; IC50 (KRAS Q61H; KRAS Q61H, read-out: KRAS Q61H FRET data IC50): 0.01 to 0.1 µM; IC50 (NRAS Q61R; NRAS Q61R, read-out: NRAS Q61R FRET data IC50): 0.1 to 1 µM; IC50 (KRAS G12V; Ras-Raf disruption, read-out: KRAS G12V FRET data IC50): 0.01 to 0.1 µM; IC50 (KRAS G13C; Ras-Raf disruption, read-out: KRAS G13C FRET data IC50): 0.01 to 0.1 µM; IC50 (NRAS G12C; NRAS G12C, read-out: NRAS G12C FRET data IC50): 0.01 to 0.1 µM; IC50 (KRAS G12S; Ras-Raf disruption, read-out: KRAS G12S FRET data IC50): 0.01 to 0.1 µM; IC50 (NRAS Q61K; NRAS Q61K, read-out: NRAS Q61K FRET data IC50): 0.1 to 1 µM; IC50 (KRAS G12D; Ras-Raf disruption, read-out: KRAS G12D FRET data IC50): < 0.01 µM; IC50 (KRAS G13D; Ras-Raf disruption, read-out: KRAS G13D FRET data IC50): 0.1 to 1 µM; IC50 (NRAS WT; NRAS WT, read-out: NRAS WT FRET data IC50): 0.01 to 0.1 µM; IC50 (KRAS G12C; Ras-Raf disruption, read-out: KRAS G12C FRET data IC50): 0.01 to 0.1 µM |
| CCn1c(-c2cccnc2[C@H](C)OC)c2c3cc(ccc31)-c1cc(O)cc(c1)C[C@H](NC(=O)[C@H](C(C)C)N(C)C(=O)CN(C)C(=O)[C@@H]1N[C@@H]1C1CCC1)C(=O)N1CCC[C@H](N1)C(=O)OCC(C)(C)C2 [Example 287] | 0.01 to 0.1 | 0.1 to 1 | < 5 | 0.01 to 0.1 | 0.01 to 0.1 | 0.1 to 1 | 0.01 to 0.1 | 0.01 to 0.1 | 0.01 to 0.1 | 0.01 to 0.1 | 0.1 to 1 | 0.01 to 0.1 | 0.1 to 1 | 0.01 to 0.1 | 0.01 to 0.1 |  |
| CCn1c(-c2cccnc2[C@H](C)OC)c2c3cc(ccc31)-c1cc(O)cc(c1)C[C@H](NC(=O)[C@H](C(C)C)N(C)C(=O)CN(C)C(=O)[C@H]1N[C@H]1C(F)(F)F)C(=O)N1CCC[C@H](N1)C(=O)OCC(C)(C)C2 [Example 259] | 0.01 to 0.1 | 0.1 to 1 | < 5 | 0.01 to 0.1 | 0.01 to 0.1 | 0.1 to 1 | 0.01 to 0.1 | 0.01 to 0.1 | 0.01 to 0.1 | 0.01 to 0.1 | 0.1 to 1 | 0.1 to 1 | 0.01 to 0.1 | 0.01 to 0.1 | 0.01 to 0.1 |  |
| CCn1c(-c2cccnc2[C@H](C)OC)c2c3cc(ccc31)-c1cc(O)cc(c1)C[C@H](NC(=O)[C@H](C(C)C)N(C)C(=O)CN(C)C(=O)[C@@H]1CN1CCCC#N)C(=O)N1CCC[C@H](N1)C(=O)OCC(C)(C)C2 (stereo partly drawn) [Example 274] | < 0.01 | 0.1 to 1 | < 5 | 0.01 to 0.1 | 0.01 to 0.1 | 0.1 to 1 | 0.01 to 0.1 | 0.01 to 0.1 | < 0.01 | 0.01 to 0.1 | 0.1 to 1 | 0.01 to 0.1 | 0.01 to 0.1 | 0.01 to 0.1 | < 0.01 |  |
| CCn1c(-c2cccnc2[C@H](C)OC)c2c3cc(ccc31)-c1cc(O)cc(c1)C[C@H](NC(=O)[C@H](C(C)C)N(C)C(=O)CN(C)C(=O)[C@@H]1N[C@H]1C1COC1)C(=O)N1CCC[C@H](N1)C(=O)OCC(C)(C)C2 [Example 283] | 0.01 to 0.1 | 0.1 to 1 | < 5 | 0.01 to 0.1 | 0.01 to 0.1 | 0.1 to 1 | 0.01 to 0.1 | < 0.01 | 0.01 to 0.1 | 0.01 to 0.1 | 0.1 to 1 | 0.01 to 0.1 | 0.01 to 0.1 | 0.01 to 0.1 | 0.01 to 0.1 |  |
